From ChEMBL document CHEMBL2057136, “Discovery of MEK/PI3K dual inhibitor via structure-based virtual screening” (Bioorg Med Chem Lett, 2012)

How the values were obtained:
[1] = target: Dual specificity mitogen-activated protein kinase kinase 2 (Homo sapiens, UniProt P36507); assay: Inhibition of MEK2 using [gamma32P]ATP by radiometric kinase assay
[2] = target: Phosphatidylinositol 4,5-bisphosphate 3-kinase catalytic subunit alpha isoform (Homo sapiens, UniProt P42336); assay: Inhibition of PI3Kalpha using [gamma32P]ATP by radiometric kinase assay
Sequence of Phosphatidylinositol 4,5-bisphosphate 3-kinase catalytic subunit alpha isoform (P42336 whole entry, canonical isoform): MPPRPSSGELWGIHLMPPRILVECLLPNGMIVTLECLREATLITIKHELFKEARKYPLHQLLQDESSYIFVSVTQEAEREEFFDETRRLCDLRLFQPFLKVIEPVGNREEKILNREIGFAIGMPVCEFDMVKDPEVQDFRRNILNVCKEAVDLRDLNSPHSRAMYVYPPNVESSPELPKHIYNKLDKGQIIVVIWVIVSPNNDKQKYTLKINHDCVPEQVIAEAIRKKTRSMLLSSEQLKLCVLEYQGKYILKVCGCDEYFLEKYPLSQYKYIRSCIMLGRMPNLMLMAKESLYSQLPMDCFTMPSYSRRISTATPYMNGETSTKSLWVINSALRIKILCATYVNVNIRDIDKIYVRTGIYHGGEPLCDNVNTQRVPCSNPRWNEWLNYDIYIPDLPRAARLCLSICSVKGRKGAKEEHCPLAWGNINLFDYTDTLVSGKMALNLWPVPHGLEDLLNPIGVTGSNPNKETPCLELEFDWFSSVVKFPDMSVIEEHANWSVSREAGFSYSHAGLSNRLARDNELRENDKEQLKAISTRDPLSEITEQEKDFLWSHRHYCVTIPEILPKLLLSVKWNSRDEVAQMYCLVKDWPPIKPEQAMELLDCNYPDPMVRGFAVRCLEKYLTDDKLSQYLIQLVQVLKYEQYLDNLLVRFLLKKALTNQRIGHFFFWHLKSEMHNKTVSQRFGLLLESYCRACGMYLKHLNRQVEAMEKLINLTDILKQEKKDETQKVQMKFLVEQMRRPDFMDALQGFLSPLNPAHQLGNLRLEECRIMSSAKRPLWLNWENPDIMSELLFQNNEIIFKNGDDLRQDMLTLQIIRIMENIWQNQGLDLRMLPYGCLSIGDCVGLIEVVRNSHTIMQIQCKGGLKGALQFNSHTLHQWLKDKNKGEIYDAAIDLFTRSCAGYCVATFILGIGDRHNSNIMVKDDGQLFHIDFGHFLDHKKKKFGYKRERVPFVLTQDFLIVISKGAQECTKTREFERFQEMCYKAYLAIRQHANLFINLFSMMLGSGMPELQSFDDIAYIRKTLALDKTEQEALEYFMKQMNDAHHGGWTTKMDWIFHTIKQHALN

[3] = target: T1, Dual specificity mitogen-activated protein kinase kinase 1 (Homo sapiens, UniProt Q02750); assay: Inhibition of MEK1 at 10 uM using [gamma32P]ATP by radiometric kinase assay
T1 sequence (Q02750 whole entry): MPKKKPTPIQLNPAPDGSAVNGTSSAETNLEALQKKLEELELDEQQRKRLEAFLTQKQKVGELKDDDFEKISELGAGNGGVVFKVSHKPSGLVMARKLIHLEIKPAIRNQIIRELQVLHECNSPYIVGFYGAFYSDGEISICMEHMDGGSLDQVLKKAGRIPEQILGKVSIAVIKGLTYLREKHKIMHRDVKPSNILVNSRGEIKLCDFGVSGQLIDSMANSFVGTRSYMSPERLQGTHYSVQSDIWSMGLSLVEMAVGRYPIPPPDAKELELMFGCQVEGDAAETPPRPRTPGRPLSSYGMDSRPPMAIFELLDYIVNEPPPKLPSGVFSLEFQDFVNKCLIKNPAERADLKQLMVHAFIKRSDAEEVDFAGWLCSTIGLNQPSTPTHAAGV

[4] = target: T1, Dual specificity mitogen-activated protein kinase kinase 1; assay: Inhibition of MEK1 using [gamma32P]ATP by radiometric kinase assay

Sequence of Dual specificity mitogen-activated protein kinase kinase 2 (P36507 whole entry, canonical isoform): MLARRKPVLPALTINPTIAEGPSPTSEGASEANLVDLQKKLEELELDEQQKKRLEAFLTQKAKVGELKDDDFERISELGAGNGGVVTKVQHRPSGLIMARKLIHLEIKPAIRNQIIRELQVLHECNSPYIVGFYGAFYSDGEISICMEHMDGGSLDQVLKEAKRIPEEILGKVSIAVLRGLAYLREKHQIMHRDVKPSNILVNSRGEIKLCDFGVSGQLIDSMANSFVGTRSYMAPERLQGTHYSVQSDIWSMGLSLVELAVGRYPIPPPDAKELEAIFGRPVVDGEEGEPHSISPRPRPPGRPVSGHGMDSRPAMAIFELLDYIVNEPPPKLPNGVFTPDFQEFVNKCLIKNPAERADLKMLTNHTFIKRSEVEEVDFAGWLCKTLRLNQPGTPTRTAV

Row | Structure (SMILES) | IC50 [1] [µM] | IC50 [2] [µM] | inhibition [3] [%] | IC50 [4] [µM]
1 | N=C1/C(=C\c2ccc(O)c(O)c2)C(=O)N=C2SC(c3ccc(O)cc3)=NN12 | 1.3 | 0.3 | > 30 | 2.2
2 | N=C1/C(=C\c2coc3ccccc3c2=O)C(=O)N=C2SC(c3ccc(O)cc3)=NN12 | – | 10.2 | > 30 | 8.5
3 | O=C(O)c1cccc(N2C(=O)/C(=C\c3cnc4ccccc4n3)SC2=S)c1 | – | > 30 | > 30 | 23.1
4 | OCCNc1ncnc2oc(-c3ccccc3)c(-c3ccccc3)c12 | – | > 30 | > 30 | 12.3
